Test results from patent publication US20110092476A1, “Bicycloheteroaryl compounds as P2X7 modulators and uses thereof” (Renovis, Inc., priority 2006, published 2011).

The compounds below were run against T1, P2X7 receptor (Homo sapiens, UniProt Q99572) (assay: IL-1β release assay in differentiated THP-1 cells stimulated with BzATP (Example 9)). Conditions: 0.1 μM compound (symbols *); differentiated THP-1 cells, BzATP 250 uM; read-out: IL-1β % Inhib. @ 0.3 or 0.1 uM.
T1 construct: host or cells: THP-1 cells differentiated with LPS and IFN-γ
T1 sequence (Q99572 1-595): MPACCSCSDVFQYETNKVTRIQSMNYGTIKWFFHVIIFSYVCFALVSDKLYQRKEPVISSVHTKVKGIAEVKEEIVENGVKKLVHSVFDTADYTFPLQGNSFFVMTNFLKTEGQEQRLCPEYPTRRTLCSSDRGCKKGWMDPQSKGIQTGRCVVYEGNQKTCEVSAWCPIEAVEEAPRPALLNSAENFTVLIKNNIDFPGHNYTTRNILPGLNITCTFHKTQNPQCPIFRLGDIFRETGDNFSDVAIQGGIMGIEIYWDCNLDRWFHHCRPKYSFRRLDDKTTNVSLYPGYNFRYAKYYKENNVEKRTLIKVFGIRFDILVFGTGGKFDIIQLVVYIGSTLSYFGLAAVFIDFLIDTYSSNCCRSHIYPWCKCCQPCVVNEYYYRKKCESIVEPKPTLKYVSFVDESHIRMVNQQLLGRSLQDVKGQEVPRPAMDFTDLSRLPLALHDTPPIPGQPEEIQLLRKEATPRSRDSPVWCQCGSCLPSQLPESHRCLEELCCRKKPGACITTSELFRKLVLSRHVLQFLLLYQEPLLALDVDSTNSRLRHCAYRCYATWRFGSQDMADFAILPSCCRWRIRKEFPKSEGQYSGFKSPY
Assay type: cell-based
Experimental: THP-1 cells (ATCC Cat #285-IF-100) are plated in 96 well plates at a concentration of 200,000 cells per well and allowed to differentiate in RPMI-1640 media (ATCC Cat #30-2001) containing 10% FBS, 100 IU/mL penicillin, 100 ug/mL streptomycin, 100 ng/mL LPS and 100 ng/mL IFN-γ for 16 hours. Following differentiation, the cells are treated for an additional 2 hours in RPMI-1640 media containing 100 IU/mL penicillin, 100 ug/mL streptomycin and fresh LPS at 100 ng/mL. The cells are then pretreated for 30 minutes with the compound of interest at the appropriate concentration in RPMI media containing 100 IU/mL penicillin, 100 ug/mL streptomycin. Following the pretreatment 2′,3′-O-(4-benzoylbenzoyl)-adenosine 5′-triphosphate (Sigma Aldrich Cat #B6396) is added to a final concentration of 250 uM and the cells are incubated for an additional 45 minutes. 30 uL of cell supernatant is then collected and IL-1β levels determined via ELISA (R&D systems Cat. #HSLB50) according to manufacturer's recommendations using the Tecan Safire plate reader. Background adjusted IL-1β levels of drug treated and non-treated cells are used to calculate the percent inhibition.
The compounds set forth in Table 1 were tested for activity in a cellular model as described herein. Specifically, cells were pretreated with differing amounts of the compound under test and released IL-1β determined as in Example 9, above. Measurements were made and IC50 values, presented in Table 2, below, were determined by fitting the data to a four parameter logistic equation using GraphPad Prism software (GraphPad Software, Inc). The equation may be expressed by the following formula:
Y=Bottom+(Top−Bottom)/(1+10̂((Log EC50−X)*HillSlope))
Where X is the logarithm of concentration, Y is the response and Y starts at Bottom and goes to Top with a sigmoid shape.

Row | inhibition at 0.1 µM [%] | SMILES
1 | 0 to 25 | CC(O)Cn1ccc2c(NC(=O)C(C)c3ccccc3)cccc2c1=O (stereo not drawn) [Compound 148]
2 | 0 to 25 | COc1ccccc1CCC(=O)Nc1cccc2c(=O)n(CC(C)O)ccc12 (stereo not drawn) [Compound 149]
3 | 26 to 50 | COc1ccc(CCC(=O)Nc2cccc3c(=O)n(CC(C)O)ccc23)cc1 (stereo not drawn) [Compound 150]
4 | 0 to 25 | CC(O)Cn1ccc2c(NC(=O)Cc3cccc4ccccc34)cccc2c1=O (stereo not drawn) [Compound 151]
5 | 0 to 25 | CC(O)Cn1ccc2c(NC(=O)c3ccc4ccccc4c3)cccc2c1=O (stereo not drawn) [Compound 152]
6 | 0 to 25 | CC(O)Cn1ccc2c(NC(=O)Cc3ccccc3F)cccc2c1=O (stereo not drawn) [Compound 153]
7 | 0 to 25 | CC(O)Cn1ccc2c(NC(=O)Cc3ccccc3Cl)cccc2c1=O (stereo not drawn) [Compound 154]
8 | 0 to 25 | COc1ccccc1CC(=O)Nc1cccc2c(=O)n(CC(C)O)ccc12 (stereo not drawn) [Compound 155]
9 | 26 to 50 | COc1ccc(OC)c(CC(=O)Nc2cccc3c(=O)n(CC(C)O)ccc23)c1 (stereo not drawn) [Compound 156]
10 | 0 to 25 | Cc1ccccc1CC(=O)Nc1cccc2c(=O)n(CC(C)O)ccc12 (stereo not drawn) [Compound 157]
11 | 0 to 25 | COc1cccc(CC(=O)Nc2cccc3c(=O)n(CC(C)O)ccc23)c1 (stereo not drawn) [Compound 158]
12 | 0 to 25 | Cc1cccc(CC(=O)Nc2cccc3c(=O)n(CC(C)O)ccc23)c1 (stereo not drawn) [Compound 159]
13 | 0 to 25 | COc1ccc(CC(=O)Nc2cccc3c(=O)n(CC(C)O)ccc23)cc1 (stereo not drawn) [Compound 160]
14 | 0 to 25 | CCOc1ccc(CC(=O)Nc2cccc3c(=O)n(CC(C)O)ccc23)cc1 (stereo not drawn) [Compound 161]
15 | 0 to 25 | Cc1ccc(CC(=O)Nc2cccc3c(=O)n(CC(C)O)ccc23)cc1 (stereo not drawn) [Compound 162]
16 | 0 to 25 | CC(O)Cn1ccc2c(NC(=O)CCCc3ccccc3)cccc2c1=O (stereo not drawn) [Compound 163]
17 | 0 to 25 | CC(O)Cn1ccc2c(NC(=O)c3cc4ccccc4o3)cccc2c1=O (stereo not drawn) [Compound 164]
18 | 0 to 25 | CC(O)Cn1ccc2c(NC(=O)Cc3ccc4c(c3)OCO4)cccc2c1=O (stereo not drawn) [Compound 165]
19 | 0 to 25 | COc1cc(CC(=O)Nc2cccc3c(=O)n(CC(C)O)ccc23)cc(OC)c1 (stereo not drawn) [Compound 166]
20 | 0 to 25 | COc1c(C)cc(C(=O)Nc2cccc3c(=O)n(CC(C)O)ccc23)cc1C (stereo not drawn) [Compound 167]
21 | 0 to 25 | Cc1ccc(C(=O)Nc2cccc3c(=O)n(CC(C)O)ccc23)cc1Cl (stereo not drawn) [Compound 168]
22 | 0 to 25 | Cc1cc(Cl)ccc1C(=O)Nc1cccc2c(=O)n(CC(C)O)ccc12 (stereo not drawn) [Compound 169]
23 | 26 to 50 | CC(O)Cn1ccc2c(NC(=O)c3cccc4c3OCCO4)cccc2c1=O (stereo not drawn) [Compound 170]
24 | 0 to 25 | CC(O)Cn1ccc2c(NC(=O)c3ccc4c(c3)OCCCO4)cccc2c1=O (stereo not drawn) [Compound 171]
25 | 51 to 75 | Cc1c(Cl)cccc1C(=O)Nc1cccc2c(=O)n(CC(C)O)ccc12 (stereo not drawn) [Compound 172]

Row | inhibition at 0.1 µM [%] | SMILES
26 | 26 to 50 | Cc1cc(C)cc(CC(=O)Nc2cccc3c(=O)n(CC(C)O)ccc23)c1 (stereo not drawn) [Compound 173]
27 | 0 to 25 | COc1ccc(CC(=O)Nc2cccc3c(=O)n(CC(C)O)ccc23)c(OC)c1 (stereo not drawn) [Compound 174]
28 | 0 to 25 | Cc1cc(C(=O)Nc2cccc3c(=O)n(CC(C)O)ccc23)ccc1F (stereo not drawn) [Compound 175]
29 | 0 to 25 | CCOc1ccccc1CC(=O)Nc1cccc2c(=O)n(CC(C)O)ccc12 (stereo not drawn) [Compound 176]
30 | 0 to 25 | COc1ccc(CC(=O)Nc2cccc3c(=O)n(CC(C)O)ccc23)cc1C (stereo not drawn) [Compound 177]
31 | 0 to 25 | Cc1ccc(Cl)c(C(=O)Nc2cccc3c(=O)n(CC(C)O)ccc23)c1 (stereo not drawn) [Compound 178]
32 | 0 to 25 | Cc1ccc(Cl)cc1C(=O)Nc1cccc2c(=O)n(CC(C)O)ccc12 (stereo not drawn) [Compound 179]
33 | 0 to 25 | Cc1cccc(CCC(=O)Nc2cccc3c(=O)n(CC(C)O)ccc23)c1 (stereo not drawn) [Compound 180]
34 | 0 to 25 | CC(O)Cn1ccc2c(NC(=O)c3cc4cc(Cl)ccc4o3)cccc2c1=O (stereo not drawn) [Compound 181]
35 | 0 to 25 | Cc1cccc(C(=O)Nc2cccc3c(=O)n(CC(C)O)ccc23)c1Cl (stereo not drawn) [Compound 182]
36 | 26 to 50 | COc1ccc(C(=O)Nc2cccc3c(=O)n(CC(C)O)ccc23)cc1C (stereo not drawn) [Compound 183]
37 | 0 to 25 | Cc1ccc(CCC(=O)Nc2cccc3c(=O)n(CC(C)O)ccc23)c(C)c1 (stereo not drawn) [Compound 184]
38 | 0 to 25 | CCOc1ccc(C(=O)Nc2cccc3c(=O)n(CC(C)(C)O)ccc23)c(O)c1 [Compound 185]
39 | 0 to 25 | COc1ccc(C(=O)Nc2cccc3c(=O)n(CC(C)(C)O)ccc23)c(C)c1 [Compound 186]
40 | 0 to 25 | Cc1ccccc1CCC(=O)Nc1cccc2c(=O)n(CC(C)(C)O)ccc12 [Compound 187]
41 | 0 to 25 | CC(C)(O)Cn1ccc2c(NC(=O)c3ccc(-c4ccccc4)o3)cccc2c1=O [Compound 188]
42 | 0 to 25 | COc1cccc(CCC(=O)Nc2cccc3c(=O)n(CC(C)(C)O)ccc23)c1 [Compound 189]
43 | 0 to 25 | Cc1cc(C)c(CC(=O)Nc2cccc3c(=O)n(CC(C)(C)O)ccc23)c(C)c1 [Compound 190]
44 | 0 to 25 | Cc1ccc(C)c(CC(=O)Nc2cccc3c(=O)n(CC(C)(C)O)ccc23)c1 [Compound 191]
45 | 0 to 25 | COc1ccc(C(=O)Nc2cccc3c(=O)n(CC(C)(C)O)ccc23)cc1Cl [Compound 192]
46 | 0 to 25 | CCOc1cccc(C(=O)Nc2cccc3c(=O)n(CC(C)(C)O)ccc23)c1 [Compound 193]
47 | 0 to 25 | CC(C)(O)Cn1ccc2c(NC(=O)CCc3ccccc3Cl)cccc2c1=O [Compound 194]
48 | 0 to 25 | CC(C)(O)Cn1ccc2c(NC(=O)CCc3ccc4c(c3)OCO4)cccc2c1=O [Compound 195]
49 | 0 to 25 | Cc1cc(C(=O)Nc2cccc3c(=O)n(CC(C)(C)O)ccc23)ccc1Cl [Compound 196]

Same assay, conditions: 0.1 μM compound; differentiated THP-1 cells, BzATP 250 uM; "*" symbols; read-out: IL-1β % Inhib. @ 0.3 or 0.1 uM

Row | inhibition at 0.1 µM [%] | SMILES
50 | 51 to 75 | CC(C)(O)Cn1ccc2c(NC(=O)c3ccccc3Cl)cccc2c1=O [Compound 197]
51 | 0 to 25 | CC(C)(O)Cn1ccc2c(NC(=O)c3ccc(Cl)cc3Cl)cccc2c1=O [Compound 198]
52 | 0 to 25 | CC(C)(O)Cn1ccc2c(NC(=O)c3cc(Cl)ccc3Cl)cccc2c1=O [Compound 199]
53 | 0 to 25 | Cc1ccccc1C(=O)Nc1cccc2c(=O)n(CC(C)(C)O)ccc12 [Compound 200]
54 | 0 to 25 | Cc1ccc(C(=O)Nc2cccc3c(=O)n(CC(C)(C)O)ccc23)c(C)c1 [Compound 201]
55 | 0 to 25 | Cc1ccc(C)c(C(=O)Nc2cccc3c(=O)n(CC(C)(C)O)ccc23)c1 [Compound 202]
56 | 0 to 25 | CC(C)(O)Cn1ccc2c(NC(=O)c3cc(Cl)cc(Cl)c3)cccc2c1=O [Compound 203]
57 | 0 to 25 | CC(C)(O)Cn1ccc2c(NC(=O)c3cccc4ccccc34)cccc2c1=O [Compound 204]
58 | 0 to 25 | CC(C)(O)Cn1ccc2c(NC(=O)Cc3cccc4ccccc34)cccc2c1=O [Compound 205]
59 | 0 to 25 | CC(C)(O)Cn1ccc2c(NC(=O)c3ccc4ccccc4c3)cccc2c1=O [Compound 206]
60 | 0 to 25 | CC(C)(O)Cn1ccc2c(NC(=O)Cc3ccccc3F)cccc2c1=O [Compound 207]
61 | 0 to 25 | CC(C)(O)Cn1ccc2c(NC(=O)Cc3ccccc3Cl)cccc2c1=O [Compound 208]
62 | 0 to 25 | COc1ccccc1CC(=O)Nc1cccc2c(=O)n(CC(C)(C)O)ccc12 [Compound 209]
63 | 0 to 25 | COc1ccc(OC)c(CC(=O)Nc2cccc3c(=O)n(CC(C)(C)O)ccc23)c1 [Compound 210]
